Values of other authors as cited in PMC8435859 (Frontiers in Cellular and Infection Microbiology, 2021).
Values after ≈ are worked out from the molar mass of the structure shown. Where a name gives a salt, the structure may show the parent alone.

Legend:
CYP3A4 = system: CYP3A4; parameters: method as in ref Cheng SenSung et al., Journal of Agricultural & Food Chemistry, 2012, 60(1):124-8; conditions: ref Cheng SenSung et al., Journal of Agricultural & Food Chemistry, 2012, 60(1):124-8; read-out: Ki, CYP3A4 inhibition; cited from earlier work
CYP2B6 = system: CYP2B6; parameters: method as in ref Cheng SenSung et al., Journal of Agricultural & Food Chemistry, 2012, 60(1):124-8; conditions: ref Cheng SenSung et al., Journal of Agricultural & Food Chemistry, 2012, 60(1):124-8; read-out: Ki, CYP2B6 inhibition; cited from earlier work
GABA uptake = system: GABA uptake; parameters: method as in Johnston G A R et al., Nature; conditions: ref Johnston G A R et al., Nature; read-out: IC50, inhibition of GABA uptake; cited from earlier work
EV71 = conditions: ref Choi HJ et al., Biomol Ther (Seoul). 2016 Sep 1;24(5):552-8; cited from earlier work
MDA-MB-231 = system: MDA-MB-231; parameters: method as in ref Sales SM et al., Biomedicine & Pharmacotherapy, 2018, 103:1577-1584; conditions: one value printed for MCF-7 & MDA-MB-231; ref Sales SM et al., Biomedicine & Pharmacotherapy, 2018, 103:1577-1584; read-out: IC50, decreased MDA-MB-231 survival; cited from earlier work
H. pylori = system: H. pylori; parameters: method as in ref Sales SM et al., Biomedicine & Pharmacotherapy, 2018, 103:1577-1584; conditions: ref Sales SM et al., Biomedicine & Pharmacotherapy, 2018, 103:1577-1584; cited from earlier work
MCF-7 = system: MCF-7; parameters: method as in ref Sales SM et al., Biomedicine & Pharmacotherapy, 2018, 103:1577-1584; conditions: one value printed for MCF-7 & MDA-MB-231; ref Sales SM et al., Biomedicine & Pharmacotherapy, 2018, 103:1577-1584; read-out: IC50, decreased MCF-7 survival; cited from earlier work

C[C@@H]1CC[C@H]2C(C)(C)[C@H]3C[C@@]12CC[C@@]3(C)O [Cedrol]
Ki (CYP3A4): 3.4 µM | Ki (CYP2B6): 0.9 µM

O=C(O)C1=CCCNC1 [Guvacine hydrochloride]
IC50 (GABA uptake): 10 µM

O=c1cc(-c2ccccc2)oc2c(O)c(O)cc(O)c12 [Norwogonin]
IC50, antiviral activity against Enterovirus 71 (EV71): Norwogonin, isolated from Scutellaria baicalensis Georgi, possesses antiviral activity against Enterovirus 71 (IC50: 31.83 μg/ml).

CCCCCCCCOC(=O)c1cc(O)c(O)c(O)c1 [Octyl gallate]
IC50 (MDA-MB-231): 40 µM | minimum inhibitory concentration (MIC) against H. pylori (H. pylori): 125 µg/mL (≈ 443 µM) | IC50 (MCF-7): 40 µM
